Measured values published in US3991052A (priority 1975, dated 1976).
In brackets after ≈: the same amount, converted by molar mass.

Columns and labels:
Erwinia amylovora = assay: MIC, standard agar-dilution assay; type: cell-based
Escherichia coli EC14 = assay: MIC, standard agar-dilution assay; type: cell-based
Serratia marcescens SE3 = assay: MIC, standard agar-dilution assay; type: cell-based
Candida albicans = assay: standard disc-diffusion assay; type: cell-based
Proteus morganii PR15 = assay: MIC, standard agar-dilution assay; type: cell-based; conditions: Morganella morganii
[1] = test system: Streptococcus faecalis X66; assay: MIC, standard agar-dilution assay; type: cell-based; conditions: Enterococcus faecalis
[2] = test system: Pseudomonas solanacearum X185; assay: microbe, parasite or virus in culture; type: cell-based; conditions: Ralstonia solanacearum
Salmonella typhosa SA12 = assay: MIC, standard agar-dilution assay; type: cell-based; conditions: Salmonella enterica
[3] = test system: Trichophyton mentagrophytes 27; assay: MIC, standard agar-dilution assay; type: cell-based
Histoplasma capsulatum = assay: microbe, parasite or virus in culture; type: cell-based
[4] = test system: Bordetella bronchiseptica 16; assay: MIC, standard agar-dilution assay; type: cell-based
Aspergillus flavus E = assay: MIC, standard agar-dilution assay; type: cell-based
[5] = test system: Staphylococcus aureus 3055; assay: MIC, standard agar-dilution assay; type: cell-based
Blastomyces dermatitidis = assay: MIC, standard agar-dilution assay; type: cell-based
Ceratocystis ulmi = assay: MIC, standard agar-dilution assay; type: cell-based
Salmonella typhimurium = assay: MIC, standard agar-dilution assay; type: cell-based; conditions: Salmonella enterica
[6] = toxicity (LD50) in mice, intraperitoneal; conditions: mouse, in vivo, ip, intraperitoneally
[7] = test system: Citrobacter freundii MX CF17; assay: MIC, standard agar-dilution assay; type: cell-based; conditions: MXCF17
[8] = test system: Staphylococcus aureus 3074; assay: MIC, standard agar-dilution assay; type: cell-based
Cryptococcus neoformans = assay: MIC, standard agar-dilution assay; type: cell-based
C. albicans = assay: dermal C. albicans infection in rabbits, topical treatment; type: in vivo; conditions: ten days treatment with 1% solution in propylene glycol
[9] = test system: Klebsiella pneumoniae KL14; assay: MIC, standard agar-dilution assay; type: cell-based
Candida tropicalis Z17 = assay: MIC, standard agar-dilution assay; type: cell-based
[10] = test system: Pseudomonas aeruginosa X239; assay: MIC, standard agar-dilution assay; type: cell-based

COC1c2cc(Cl)c(O)cc2ON2C(=O)C3NC(=O)C12SS3 (stereo not drawn)
MIC (Erwinia amylovora): 6.25 µg/mL (≈ 17.3 µM)
MIC (Escherichia coli EC14): > 100 µg/mL
MIC (Serratia marcescens SE3): > 100 µg/mL
amount inhibiting Candida albicans (Candida albicans): less than 0.312 mcg per disc
MIC (Proteus morganii PR15): > 100 µg/mL
MIC [1]: > 100 µg/mL
MIC [2]: > 100 µg/mL
MIC (Salmonella typhosa SA12): > 100 µg/mL
MIC [3]: 25 µg/mL (≈ 69.3 µM)
MIC (Histoplasma capsulatum): 10 µg/mL (≈ 27.7 µM)
MIC [4]: 50 µg/mL (≈ 139 µM)
MIC (Aspergillus flavus E): 25 µg/mL (≈ 69.3 µM)
MIC [5]: 3.12 µg/mL (≈ 8.65 µM)
MIC (Blastomyces dermatitidis): 10 µg/mL (≈ 27.7 µM)
MIC (Ceratocystis ulmi): 12.5 µg/mL (≈ 34.6 µM)
MIC (Salmonella typhimurium): > 100 µg/mL
LD50 [6]: 106 mg/kg
MIC [7]: > 100 µg/mL
MIC [8]: 0.78 µg/mL (≈ 2.16 µM)
MIC (Cryptococcus neoformans): < 0.156 µg/mL
lesions caused by a dermal C. albicans infection (C. albicans): reduced in severity and size
MIC [9]: > 100 µg/mL
MIC (Candida tropicalis Z17): > 100 µg/mL
MIC [10]: > 100 µg/mL
